From patent US20090099167A1, “Organic compounds” (Novartis Institutes for Biomedical Research, priority 2004, published 2009)

What was measured:
Type in all cases: biochemical
c-Src kinase = c-Src kinase (Homo sapiens, UniProt P12931); experiment: c-Src kinase inhibition; details: Table 4; read-out: s-Scr, activity (IC50 for kinase inhibition)
Excerpt: An appropriate assay is described in Andrejauskas-Buchdunger et al., Cancer Res. 52, 5353-8 (1992).

[1] = target: T1, human insulin receptor (Ins-R) (Homo sapiens, UniProt P06213); experiment: Ins-R tyrosine kinase assay, GST-Ins-R; details: Table 4; read-out: Ins-R, activity (IC50 for kinase inhibition)
T1 construct: encoding the amino acid region 919-1343 of the intra-cytoplasmic kinase domain of the human insulin receptor; made in house; host or cells: baculovirus (Bac-to-Bac)
T1 sequence (P06213 958-1382 limits assumed): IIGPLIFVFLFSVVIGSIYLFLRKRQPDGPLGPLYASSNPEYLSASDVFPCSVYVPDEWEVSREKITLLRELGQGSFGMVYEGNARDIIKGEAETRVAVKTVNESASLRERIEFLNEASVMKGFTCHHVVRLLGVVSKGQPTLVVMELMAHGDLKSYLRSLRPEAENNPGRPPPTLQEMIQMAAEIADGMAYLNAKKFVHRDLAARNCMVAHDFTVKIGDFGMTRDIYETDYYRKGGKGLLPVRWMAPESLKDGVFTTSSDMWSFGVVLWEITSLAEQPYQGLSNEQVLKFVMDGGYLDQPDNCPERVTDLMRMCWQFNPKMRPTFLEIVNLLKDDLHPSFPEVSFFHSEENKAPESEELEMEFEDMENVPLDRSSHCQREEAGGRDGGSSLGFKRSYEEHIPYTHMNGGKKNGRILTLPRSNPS
Excerpt: The inhibition of IGF-1R and Ins-R can be determined as follows: The baculovirus donor vector pfbgx3IGFIRcd is used to generate a recombinant baculovirus that expresses the amino acid region 950-1337 of the mature peptide cytoplasmic domain of the human IGF-IR. To generate the cDNA fragment encoding the amino acid region 919-1343 of the intra-cytoplasmic kinase domain of the human insulin receptor, pC5hInsR is used. The fragments of the human IGF-IR and Ins-R are cloned, expressed and small-scale purified as a factor Xa-cleavable glutathione-S-transferase (GST)-fusion protein using the Bac-to-Bac™ system (GIBCO BRL) of recombinant baculovirus generation. Virus containing media is collected from the transfected cell culture and used for infection to increase its titer. Virus containing media obtained after two rounds of infection is used for large-scale protein expression. Cell extracts are prepared and loaded onto a glutathione-Sepharose (Pharmacia) column. After washing, the GST-tagged proteins are then eluted with a glutathione-containing buffer. Purified protein is stored at −70° C. in elution buffer. Tyrosine protein kinase assays with purified GST-IGF-1R and GST-ins-R are carried in a final volume of 30 μl containing 20 mM Tris-HCl, pH 7.6, 10 mM MgCl2, 0.01 mM Na3VO4, 1% DMSO, 1 mM DTT, 3 μg/ml poly(Glu,Tyr) 4:1 and 10 μM ATP (γ-[^33P]-ATP 0.1 μCi). The assay is performed in 96-well plates at ambient temperature for 20 min and terminated by addition of 25 μl 0.05 M EDTA pH 7.0. An aliquot of 40 μl is spotted with a multichannel dispenser on Whatman P81 membranes mounted in a Millipore Microtiter filter manifold connected to a low vacuum source. After elimination of liquid, the membrane is transferred to a sequence of 4 washing baths containing 0.5% H3PO4 and one with EtOH (shaking incubation for 10 min each), dried, mounted onto a Hewlett Packard TopCount manifold added 10 μl Microscint® and counted. Compounds of formula (I) show up to 90% inhibition of Ins-R at 10,000 nM, preferably between 60-90% inhibition. The inhibition of Tek can be determined as follows: The procedure of the expression, purification and assay these kinases has been described. Fabbro et al., Pharmacol. Ther. 82(2-3) 293-301 (1999). In brief, the glutathione S-transferase (GST) gene from the pAcG1 vector (Pharmingen) is excised with EcoRV and EcoRI and inserted into the cloning site of the Fast-Bac baculoviral vector (GIBCO) creating a 5530 bp vector with N-terminal cloning sites derived from the pAcG1 fusion vector (FBG0). The C-terminal cloning site may be any cloning site (from the Fast-Bac vector) downstream of the N-terminal cloning site used. N-terminally GST-fused (pAcG1, Pharmingen) KDR, Flt-1, Flk-1, Tek and PDGFR-β kinase domains are obtained from ProQinase, Freiburg, Germany. Tek is recloned into the FBG1 vector by EcoRI excision and ligation into EcoRI digested FBG1 (FBG1-Tek). The coding sequences for the whole cytoplasmic domain of c-Kit (aa 544-976) and c-Fms (aa 538-972) are amplified by PCR from human uterus and from human bone marrow cDNA libraries (Clontech), respectively. The amplified DNA fragments are fused to GST by cloning them into FBG1 as BamHI-EcoRI insertions, to yield FBG1-c-Kit and FBG1-c-Fms. Tek is recloned into the FBG0 transfer vector by EcoRI excision and ligation into EcoRI digested FBG0 (FBG-Tie2/Tek). FGFR-1 and c-met kinase domains are obtained by PCR from human A431 cells. N-terminal primers contain an overhanging EcoRI site, while C-terminal primers contain a XhoI site to aid cloning into the transfer vectors. After digestion of both the PCR fragments and FBG0 the cleavage products are gel-purified and ligated together to form the kinase constructs (FBG-Met, FBG-FGFR-1).

human Flt-3 = target: T2, human Flt-3 (Homo sapiens, UniProt P36888); experiment: Flt3 kinase inhibition, GST-Flt-3, 33P incorporation into poly(Glu,Tyr); details: Table 4; read-out: Flt-3, activity (IC50 for kinase inhibition)
T2 construct: expressing the amino acid region amino acids 563-993 of the cytoplasmic kinase domain of human Flt-3; made in house; host or cells: Sf9 (baculovirus)
T2 sequence (P36888 563-993): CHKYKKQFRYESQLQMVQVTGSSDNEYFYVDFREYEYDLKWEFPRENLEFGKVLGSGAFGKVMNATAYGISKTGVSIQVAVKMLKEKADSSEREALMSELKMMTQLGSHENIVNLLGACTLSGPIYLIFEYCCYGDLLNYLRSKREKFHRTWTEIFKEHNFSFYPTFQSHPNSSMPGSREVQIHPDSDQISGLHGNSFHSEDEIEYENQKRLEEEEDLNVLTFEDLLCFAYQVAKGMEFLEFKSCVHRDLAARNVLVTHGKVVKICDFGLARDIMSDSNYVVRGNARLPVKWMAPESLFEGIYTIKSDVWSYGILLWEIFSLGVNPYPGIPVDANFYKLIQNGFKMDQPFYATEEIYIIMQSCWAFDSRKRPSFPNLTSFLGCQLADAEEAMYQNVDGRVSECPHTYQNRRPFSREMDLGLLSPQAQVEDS
Protocol: The compounds to be tested are then diluted in culture medium (without FCS, with 0.1% bovine serum albumin) and added to the cells. (Controls comprise medium without test compounds). After two hours' incubation at 37° C., recombinant VEGF is added; the final VEGF concentration is 20 ng/ml). After a further five minutes incubation at 37° C., the cells are washed twice with ice-cold PBS (phosphate-buffered saline) and immediately lysed in 100 μl lysis buffer per well. The lysates are then centrifuged to remove the cell nuclei, and the protein concentrations of the supernatants are determined using a commercial protein assay (BIORAD). The lysates can then either be immediately used or, if necessary, stored at −20° C. A sandwich ELISA is carried out to measure the VEGF-R2 phosphorylation: a monoclonal antibody to VEGF-R2 (for example Mab 1495.12.14; ProQinase, Freiburg, Germany) is immobilized on black ELISA plates (OptiPlate™ HTRF-96 from Packard). The plates are then washed and the remaining free protein-binding sites are saturated with 3% TopBlock® (Juro, Cat. # TB232010) in phosphate buffered saline with Tween 20® (polyoxyethylen(20)-sorbitane monolaurate, ICI/Uniquema) (PBST). The cell lysates (20 μg protein per well) are then incubated in these plates overnight at 4° C. together with an antiphosphotyrosine antibody coupled with alkaline phosphatase (PY20:AP from Zymed). […] The luminescence is measured in a Packard Top Count Microplate Scintillation Counter. The difference between the signal of the positive control (stimulated with VEGF) and that of the negative control (not stimulated with VEGF) corresponds to VEGF-induced VEGF-R2 phosphorylation (=100%). The activity of the tested substances is calculated as percent inhibition of VEGF-induced VEGF-R2 phosphorylation, wherein the concentration of substance that induces half the maximum inhibition is defined as the IC50 (inhibitory dose for 50% inhibition). […] Flt3 kinase inhibition is determined as follows: The baculovirus donor vector pFbacG01 (GIBCO) is used to generate a recombinant baculovirus expressing the amino acid region amino acids 563-993 of the cytoplasmic kinase domain of human Flt-3. The coding sequence for the cytoplasmic domain of Flt-3 is amplified by PCR from human c-DNA libraries (Clontech). The amplified DNA fragments and the pFbacG01 vector are made compatible for ligation by digestion with BamH1 and HindIII. Ligation of these DNA fragments results in the baculovirus donor plasmid Flt-3(1.1). The production of the viruses, the expression of proteins in Sf9 cells and the purification of the GST-fused proteins are performed as follows: Production of virus: Transfer vector (pFbacG01-Flt-3) containing the Flt-3 kinase domain is transfected into the DH10Bac cell line (GIBCO) and the transfected cells are plated on selective agar plates. Colonies without insertion of the fusion sequence into the viral genome (carried by the bacteria) are blue. Single white colonies are picked and viral DNA (bacmid) is isolated from the bacteria by standard plasmid purification procedures. Sf9 or Sf21 cells (American Type Culture Collection) are then transfected in flasks with the viral DNA using Cellfectin reagent. Determination of small scale protein expression in Sf9 cells: Virus containing media is collected from the transfected cell culture and used for infection to increase its titre. Virus containing media obtained after two rounds of infection is used for large-scale protein expression. For large-scale protein expression 100 cm^2 round tissue culture plates are seeded with 5×10^7 cells/plate and infected with 1 mL of virus-containing media (approx. 5 MOIs). After 3 days the cells are scraped off the plate and centrifuged at 500 rpm for 5 min. Cell pellets from 10-20, 100 cm^2 plates, are resuspended in 50 mL of ice-cold lysis buffer (25 mMTris-HCl, pH 7.5, 2 mM EDTA, 1% NP-40, 1 mM DTT, 1 mM PMSF). The cells are stirred on ice for 15 min and then centrifuged at 5000 rpms for 20 min. […]

c-Abl kinase = target: T3, c-Abl kinase (Homo sapiens, UniProt P00519); experiment: c-Abl protein-tyrosine kinase filter binding assay; details: Table 4; read-out: c-abl, activity (IC50 for kinase inhibition)
T3 construct: The His-tagged kinase domain of c-Abl is cloned and expressed in the baculovirus/Sf9 system; His; made in house; host or cells: Sf9 (baculovirus)
T3 sequence (P00519 242-493 limits assumed): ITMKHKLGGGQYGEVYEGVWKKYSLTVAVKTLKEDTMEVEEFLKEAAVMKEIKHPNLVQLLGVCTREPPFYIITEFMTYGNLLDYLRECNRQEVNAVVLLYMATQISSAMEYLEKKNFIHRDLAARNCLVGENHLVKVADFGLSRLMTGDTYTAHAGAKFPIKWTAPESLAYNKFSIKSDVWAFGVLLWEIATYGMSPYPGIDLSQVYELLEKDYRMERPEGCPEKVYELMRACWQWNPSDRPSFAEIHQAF
Protocol: The His-tagged kinase domain of c-Abl is cloned and expressed in the baculovirus/Sf9 system as described by Bhat et al. in J. Biol. Chem. 1997; 272:16170-16175. A protein of 37 kD (c-Abl kinase) is purified by a two-step procedure over a Cobalt metal chelate column followed by an anion exchange column with a yield of 1-2 mg/L of Sf9 cells (Bhat et al., reference cited). The purity of the c-Abl kinase is >90% as judged by SDS-PAGE after Coomassie blue staining. The assay contains (total volume of 30 μL): c-Abl kinase (50 ng), 20 mM Tris.HCl, pH 7.5, 10 mM MgCl2, 10 μM Na3VO4, 1 mM DTT and 0.06 μCi/assay [γ^33 P]-ATP (5 μM ATP) using 30 μg/mL poly-Ala,Glu,Lys,Tyr-6:2:5:1 (Poly-AEKY, Sigma P1152) in the presence of 1% DMSO. Reactions are terminated by adding 10 μL of 250 mM EDTA and 30 μL of the reaction mixture is transferred onto Immobilon-PVDF membrane (Millipore, Bedford, Mass., USA) previously soaked for 5 min with methanol, rinsed with water, then soaked for 5 min with 0.5% H3PO4 and mounted on vacuum manifold with disconnected vacuum source. After spotting all samples, vacuum is connected and each well rinsed with 200 μL 0.5% H3PO4. Membranes are removed and washed on a shaker with 0.5% H3PO4 (4 times) and once with ethanol. Membranes are counted after drying at ambient temperature, mounting in Packard TopCount 96-well frame, and addition of 10 μL/well of Microscint™ (Packard).

Sequence of c-Src kinase (P12931 whole entry): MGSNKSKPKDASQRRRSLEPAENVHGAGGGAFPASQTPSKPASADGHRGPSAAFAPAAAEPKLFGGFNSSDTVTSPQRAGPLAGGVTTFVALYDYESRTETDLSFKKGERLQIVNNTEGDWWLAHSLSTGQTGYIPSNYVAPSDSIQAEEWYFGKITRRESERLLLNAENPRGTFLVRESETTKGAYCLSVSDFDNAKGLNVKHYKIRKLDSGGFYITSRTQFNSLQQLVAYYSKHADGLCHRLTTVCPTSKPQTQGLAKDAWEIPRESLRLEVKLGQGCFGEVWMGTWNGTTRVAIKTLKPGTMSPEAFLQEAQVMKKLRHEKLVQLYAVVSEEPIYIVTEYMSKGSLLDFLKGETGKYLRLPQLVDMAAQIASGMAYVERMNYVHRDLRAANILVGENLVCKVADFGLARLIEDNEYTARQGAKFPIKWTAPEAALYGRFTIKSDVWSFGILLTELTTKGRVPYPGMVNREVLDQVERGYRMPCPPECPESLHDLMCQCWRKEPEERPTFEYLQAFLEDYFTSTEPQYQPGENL

Structure (SMILES)	IC50 (c-Src kinase)	also measured
Nc1c(-c2c(Cl)cccc2Cl)cnc2c(-c3ccccc3)cnn12 [Example 16, 6-(2,6-Dichloro-phenyl)-3-phenyl-pyrazolo[1,5-a]pyrimidin-7-ylamine]		IC50 [1]: < 10 µM
CN1CCN(c2cccc(-c3cnn4c(N)c(-c5ccsc5)cnc34)c2)CC1 [Example 49, 3-[3-(4-Methyl-piperazin-1-yl)-phenyl]-6-thiophen-3-yl-pyrazolo[1,5-a]pyrimidin-7-ylamine]		IC50 (human Flt-3): < 10 µM
CN1CCN(c2ccc(-c3cnn4c(N)c(-c5ccccc5)cnc34)cc2)CC1 [Example 7, 3-[4-(4-Methyl-piperazin-1-yl)-phenyl]-6-phenyl-pyrazolo[1,5-a]pyrimidin-7-ylamine]	< 10 µM	

More lines, main results first:

IC50 (c-Src kinase)	Structure (SMILES)	also measured
< 10 µM	COc1ccccc1-c1cnc2c(-c3ccc(N4CCN(C)CC4)cc3)cnn2c1N [Example 27, 6-(2-Methoxy-phenyl)-3-[4-(4-methyl-piperazin-1-yl)-phenyl]-pyrazolo[1,5-a]pyrimidin-7-ylamine]	
< 10 µM	CN1CCN(c2ccc(-c3cnn4c(N)c(-c5csc6ccccc56)cnc34)cc2)CC1 [Example 19, 6-Benzo[b]thiophen-3-yl-3-[4-(4-methyl-piperazin-1-yl)-phenyl]-pyrazolo[1,5-a]pyrimidin-7-ylamine]	IC50 (c-Abl kinase): < 10 µM
